Assay results from US8354395B2, “Method for providing neuroprotection from spinal muscular atrophy” (Trophos, priority 2003, dated 2013).

How the values were obtained:
[1] = tested on: rat motor neurons; test: in vitro model of trophic deprivation of rat motor neurons (survival, calcein fluorescence); format: cell-based; conditions: 3 days in basal medium, compared with medium supplemented with neurotrophic factors, ratio > 0 = positive effect
Protocol: The spinal cord of E14 rat embryos is dissected and the ventral part is isolated by trituration after trypsination. […] The cells are centrifuged on a density gradient. The motor neurons are enriched in the fraction of the large cells (the least dense). The cells of this fraction are incubated with an anti-p75 antibody, a surface antigen present on the motor neurons. Secondary antibodies coupled with magnetic balls are added and the mixture of cells is passed through a column in a magnet (Arce et al., 1999). Only the motor neurons are retained: their purity is of the order of 90%.
The motor neurons are inoculated at low density in culture wells on a substrate of polyornithine-laminin in a neurobasal medium supplemented according to Raoul et al., 1999, Programmed cell death of embryonic motor neurons triggered through the Fas death receptor. […] Negative controls (absence of trophic factors) and positive controls (in the presence of BDNF (Brain-Derived Neurotrophic Factor) at 1 ng/ml, GDNF (Glial-Derived Neurotrophic Factor) at 1 ng/ml and CNTF (Ciliary Neurotrophic Factor) at 10 ng/ml, marketed by the American company PEPROTECH, Inc. and the Sigma-Aldrich company, are included in each series.
The compounds to be tested are added 60 minutes after the inoculation and the cultures are maintained at 37° C. under 5% CO2 for 3 days.
After 3 days, the survival is evaluated by a fluorescence measurement after incubation of the cells in the presence of calcein which becomes fluorescent in the living cells.
The activity of the compounds to be tested was evaluated according to their capacity to prevent the death of the motor neurons when they are added to the neurobasal medium compared with the survival of the motor neurons in medium supplemented with neurotrophic factors.
This survival rate is expressed by a number, the ratio.

[2] = tested on: GABAA receptors; test: electrophysiology in vitro with rat neurons (slices of hippocampus on MEA, sensitive neurons in patch clamp); format: cell-based; conditions: for effect on the stimulating GABAA transmission (postsynaptic field potentials, CA1): slices of hippocampus, 20 μM bicuculline, 50 μM picrotoxin, 1-10 μM diazepam, 10-1000 nM steroids
Protocol: Electrophysiological experiments were carried out in vitro with rat neurons (slices of hippocampus, neurons sensitive in culture), as follows:
The experiments are carried out with hippocampi removed from rats of the Sprague Dawley strain aged from 10 to 21 days. The animals are sacrificed by decapitation, and their brain is rapidly transferred into ACSF (Artificial Cerebro-Spinal Fluid) without sodium (composition: 2 mM KCl, 1.2 mM NaH2PO4, 2 mM MgCl2, 0.5 mM CaCl2, 26 mM NaHCO3, 11 mM glucose, 250 mM saccharose), maintained at a temperature of 4° C. and carbogen (a 95% O2, 5% CO2 mixture) is bubbled through. The hippocampi are extracted from each cerebral hemisphere then cut up into slices of […] thickness using a “tissue chopper”. The slices are left to rest in ACSF medium (composition: 126 mM NaCl, 2 mM KCl, 1.2 mM NaH2PO4, 2 mM MgCl2, 0.5 mM CaCl2, 26 mM NaHCO3, 11 mM glucose) at ambient temperature, at least one hour before recording. Using a pipette, one slice is then deposited on a multi-electrode recording system (MEA, MultiChannel Systems™, Germany) and positioned so as to cover the […]. In order to avoid any change in position by the perfusion flow, a grid weighted down by a platinum <<U>> is positioned on the slice. The MEA is then rapidly inserted into the recording system and the chamber perfused with ACSF with carbogen bubbled through; the middle of the chamber is connected to earth. The perfused ACSF as well as the MEA are maintained at a temperature of 37° C. One of the 60 electrodes is selected as a stimulation electrode. A biphasic stimulation current with an intensity of 300 μA over 0.1 ms is generated from this electrode at a rate of one stimulation every 30 seconds. The responses produced are seen simultaneously at the level of the 59 other electrodes of the MEA. The axons of the Schaeffer collaterals are stimulated in the CA3. In the CA1 region, 6 to 12 electrodes are selected in order to record the field potentials which correspond to the sum of the variations of the postsynaptic potentials of the neurons situated close to each electrode. The molecules tested are dissolved in the ACSF medium (the final concentration of DMSO is ≦0.1%) and carried over onto the slice by means of the perfusion system.
The sensitive rat neurons are cultured for 1 to 2 days and then recorded with the patch clamp technique as described in De Roo M. et al. (Dehydroepiandrosterone potentiates native ionotropic ATP receptors containing the P2X2 subunit in rat sensory neurones, J Physiol, 2003, 552:59-71).

[3] = tested on: motor neurons of the nucleus of the facial nerve; test: axotomy of the facial nerve in new-born rats, count of motor neurons of the facial nucleus; format: in vivo, rat; conditions: axotomized new-born rats; dose between 3 and 100 mg/kg according to the administration route; compared with the nerve which is not sectioned
Protocol: An axotomy of the facial nerve is performed on new-born young rats of 2-3 days old. The animals receive the cholest-4-en-3-one oxime 4 hours before the unilateral section of the nerve then daily for 5 days by sub-cutaneous route. Seven days after the section of the nerve, the animals are anaesthetized, then fixed by intra-cardial perfusion of paraformaldehyde. The brain is then removed and placed in paraffin. The histological analysis of compound sections of 7 μm of the nucleus of the facial nerve, stained with cresyl violet, allows the number of motor neurons of the intact side as well as of the side of the nerve which has been sectioned to be counted (Casanovas et al., Prevention by lamotrigine, MK-801 and N omega-nitro-L-arginine methyl ester of motoneuron cell death after neonatal axotomy, Neuroscience, 1996, 71, 313-325).

[4] = tested on: striatal neurons expressing truncated mutated huntingtin; test: protection of striatal neurons from death induced by overexpression of a mutated form of huntingtin; format: cell-based; conditions: 1 μM in 0.5% DMSO; 7 days; compared with medium supplemented with BDNF
Protocol: Primary cultures of striatal neurons are prepared as described in the literature (Primary striatal neuronal culture, Mao L. et al., Methods Mol. Med., 2003, 79:379-86). […] A second expression vector containing the DNA coding the green fluorescent protein (GFP) also undergoes electroporation and serves as a reporter gene. The DNA of the plasmid coding the huntingtin was prepared by purification with cesium chloride. The plasmid containing the GFP sequence was prepared on Qiagen columns. The integrity of the DNA sequences is verified by sequencing, transfection and western blotting. The cells which survive the electroporation are inoculated at a density of 4000 cells per well of a 96-well plate. The culture takes place in Neurobasal medium (GIBCO) complimented with pyruvate and B-27 (Beckton Dickinson). The cells are maintained in culture for 7 days without changing the medium.
The treatments with the compounds to be tested are carried out just after the inoculation at a final concentration of 1 μM in 0.5% of dimethyl sulphoxide (DMSO). The positive controls are carried out by the addition of BDNF at 5 ng/ml final. The negative controls only receive 0.5% DMSO.
Cell death is evaluated after the 7 days by counting the number of living cells expressing the GFP.
The activity of the compounds to be tested was evaluated by their capacity to prevent the death of the striatal neurons cultured in the neurobasal medium compared with the survival of the striatal neurons in medium supplemented with BDNF (Brain-Derived Neurotrophic Factor).

[5] = toxicological study in mice; format: in vivo; conditions: oral, sub-cutaneous, intra-peritoneal and intravenous routes, up to 300 mg/kg/day, daily up to 28 days

CC(C)CCC[C@@H](C)[C@H]1CC[C@H]2[C@@H]3CCC4=CC(=NO)CC[C@]4(C)[C@H]3CC[C@]12C [Compound 1, Cholest-4-en-3-one oxime]
Ratio (survival rate of the motor neurons) ([1]; 5 μM): 1
blocking of the effect of positive allosteric modulators of the GABAA receptors ([2]; allopregnanolone or tetrahydrodeoxycorticosterone as modulators, dose-dependent, concentrations equivalent to those with neurotrophic effects in vitro): capable of blocking
effect on the GABAA receptors, compound alone ([2]; tested alone up to 10 μM, slice of hippocampus or sensitive neurons): no effect
increase of survival of the motor neurons of the nucleus of the facial nerve [3]: up to 40%
Ratio (survival of striatal neurons) [4]: 0.3
toxicity [5]: did not show significant toxicity

CC(C)CCC[C@@H](C)[C@H]1CC[C@H]2[C@@H]3CCC4=CC(=NO)C=C[C@]4(C)[C@H]3CC[C@]12C [Compound 2, 1,4-cholestadien-3-one oxime]
Ratio (survival rate of the motor neurons) ([1]; 5 μM): 0.6

CC(C)=CCC[C@@H](C)[C@H]1CC[C@H]2[C@@H]3CCC4=CC(=O)CC[C@]4(C)[C@H]3CC[C@]12C [Compound 4, Cholest-4,24-dien-3-one]
Ratio (survival of striatal neurons) [4]: 0.2

CC(C)=CCC[C@@H](C)[C@H]1CC[C@H]2[C@@H]3CCC4=CC(=NO)CC[C@]4(C)[C@H]3CC[C@]12C [Compound 6, 4,24-cholestadien-3-one oxime]
Ratio (survival rate of the motor neurons) ([1]; 5 μM): 0.5

CC(C)CC=C[C@@H](C)[C@H]1CC[C@H]2[C@@H]3CCC4=CC(=NO)CC[C@]4(C)[C@H]3CC[C@]12C [Compound 7, 4,22-cholestadien-3-one oxime]
Ratio (survival rate of the motor neurons) ([1]; 6 μM): 0.25

CC[C@H](CC[C@@H](C)[C@H]1CC[C@H]2[C@@H]3CCC4=CC(=NO)CC[C@]4(C)[C@H]3CC[C@]12C)C(C)C [Compound 8, 4-stigmasta-ene-3-one oxime]
Ratio (survival rate of the motor neurons) ([1]; 10 μM): 0.3

CC(C)CCC[C@@H](C)[C@H]1CC[C@H]2[C@@H]3CC[C@]4(O)CC(=O)CC[C@]4(C)[C@H]3CC[C@]12C [Compound 9, 5-beta-hydroxy-cholestan-3-one]
Ratio (survival rate of the motor neurons) ([1]; 1 μM): 0.5
Ratio (survival of striatal neurons) [4]: 0.5

CC(C)CCC[C@@H](C)[C@H]1CC[C@H]2[C@@H]3C=C[C@H]4CC(=O)CC[C@]4(C)[C@H]3CC[C@]12C [Compound 11, 5-alpha-cholest-6-en-3-one]
Ratio (survival of striatal neurons) [4]: 0.3

CC(C)C(C)C=C[C@@H](C)[C@H]1CC[C@H]2[C@@H]3C=CC4=CC(=O)CC[C@]4(C)[C@H]3CC[C@]12C (stereo partly shown) [Compound 12, 24-methylcholest-4,6,22-trien-3-one]
Ratio (survival of striatal neurons) [4]: 0.3

CC(C)[C@@H](C)C=C[C@@H](C)[C@H]1CC[C@H]2[C@@H]3C=CC4=CC(=NO)CC[C@]4(C)[C@H]3CC[C@]12C [Compound 15, 4.6, 22-ergosta-trien-3-one oxime]
Ratio (survival rate of the motor neurons) ([1]; 5 μM): 0.2

CC(C)CCC[C@@H](C)[C@H]1CC[C@H]2[C@@H]3C=CC4=CC(=NO)C=C[C@]4(C)[C@H]3CC[C@]12C [Compound 17, 1.4,6-cholesta-trien-3-one oxime]
Ratio (survival rate of the motor neurons) ([1]; 5 μM): 0.3

CC(=O)[C@H]1CC[C@H]2[C@@H]3CC[C@H]4C[C@H](O)CC[C@]4(C)[C@H]3CC[C@]12C [allopregnanolone, 3α-hydroxy-5α-pregnan-20-one]
effect on chlorine currents produced by isoguvacine ([2]; sensitive neurons, patch-clamp): potentialized
effect on the stimulating GABAA transmission (postsynaptic field potentials, CA1) [2]: potentialized

CN1C(=O)CN=C(c2ccccc2)c2cc(Cl)ccc21 [diazepam]
effect on the stimulating GABAA transmission (postsynaptic field potentials, CA1) [2]: potentialized

C[C@]12CC[C@@H](O)C[C@@H]1CC[C@@H]1[C@@H]2CC[C@]2(C)[C@@H](C(=O)CO)CC[C@@H]12 [tetrahydrodeoxycorticosterone]
effect on the stimulating GABAA transmission (postsynaptic field potentials, CA1) [2]: potentialized

picrotoxin
effect on the stimulating GABAA transmission (postsynaptic field potentials, CA1) [2]: blocked
